Assay results taken from the NIST ThermoML archive (doi:10.1016/j.fluid.2014.04.002).
Numbers after ± are expanded uncertainties.

Experiment: xn = mol fraction of the nth substance listed
Settings: 101 kPa, Liquid; for viscosity: Concentric cylinders viscometry; for mass density: Vibrating tube method

CCOC(=O)C(C)O (stereo not drawn) [DL-ethyl lactate] + C1CCOC1
Settings	mass density [kg/m3]	viscosity [mPa·s]
288.15 K, x1 = 0.1002	913.682 ± 0.27	0.6267 ± 0.012
288.15 K, x1 = 0.2001	932.177 ± 0.31	0.7629 ± 0.014
288.15 K, x1 = 0.3001	949.134 ± 0.36	0.9181 ± 0.017
288.15 K, x1 = 0.4001	964.944 ± 0.41	1.095 ± 0.02
288.15 K, x1 = 0.4999	979.595 ± 0.47	1.313 ± 0.024
288.15 K, x1 = 0.5999	993.315 ± 0.54	1.58 ± 0.029
288.15 K, x1 = 0.6999	1006.15 ± 0.62	1.91 ± 0.036
288.15 K, x1 = 0.7999	1018.13 ± 0.71	2.309 ± 0.044
288.15 K, x1 = 0.8997	1029.17 ± 0.81	2.754 ± 0.053
288.15 K, x1 = 1	1039.28 ± 0.92	3.207 ± 0.062
293.15 K, x1 = 0.1002	908.275 ± 0.27	0.5901 ± 0.011
293.15 K, x1 = 0.2001	926.796 ± 0.31	0.7128 ± 0.013
293.15 K, x1 = 0.3001	943.748 ± 0.35	0.8562 ± 0.016
293.15 K, x1 = 0.4001	959.567 ± 0.41	1.013 ± 0.019
293.15 K, x1 = 0.4999	974.209 ± 0.47	1.2 ± 0.022
293.15 K, x1 = 0.5999	987.924 ± 0.54	1.426 ± 0.027
293.15 K, x1 = 0.6999	1000.76 ± 0.61	1.701 ± 0.032
293.15 K, x1 = 0.7999	1012.74 ± 0.7	2.028 ± 0.038
293.15 K, x1 = 0.8997	1023.77 ± 0.8	2.389 ± 0.046
293.15 K, x1 = 1	1033.84 ± 0.91	2.75 ± 0.053
298.15 K, x1 = 0.1002	902.835 ± 0.27	0.5622 ± 0.011
298.15 K, x1 = 0.2001	921.368 ± 0.31	0.6721 ± 0.013
298.15 K, x1 = 0.3001	938.334 ± 0.35	0.8003 ± 0.015
298.15 K, x1 = 0.4001	954.154 ± 0.41	0.9386 ± 0.018
298.15 K, x1 = 0.4999	968.8 ± 0.47	1.103 ± 0.021
298.15 K, x1 = 0.5999	982.515 ± 0.53	1.297 ± 0.024
298.15 K, x1 = 0.6999	995.342 ± 0.61	1.527 ± 0.029
298.15 K, x1 = 0.7999	1007.32 ± 0.69	1.799 ± 0.034
298.15 K, x1 = 0.8997	1018.34 ± 0.79	2.096 ± 0.04
298.15 K, x1 = 1	1028.39 ± 0.9	2.39 ± 0.046
303.15 K, x1 = 0.1002	897.364 ± 0.27	0.5357 ± 0.01
303.15 K, x1 = 0.2001	915.916 ± 0.31	0.6349 ± 0.012
303.15 K, x1 = 0.3001	932.893 ± 0.35	0.7493 ± 0.014
303.15 K, x1 = 0.4001	948.718 ± 0.4	0.8721 ± 0.016
303.15 K, x1 = 0.4999	963.363 ± 0.46	1.016 ± 0.019
303.15 K, x1 = 0.5999	977.073 ± 0.53	1.183 ± 0.022
303.15 K, x1 = 0.6999	989.9 ± 0.6	1.38 ± 0.026
303.15 K, x1 = 0.7999	1001.88 ± 0.69	1.607 ± 0.031
303.15 K, x1 = 0.8997	1012.89 ± 0.78	1.854 ± 0.036
303.15 K, x1 = 1	1022.92 ± 0.88	2.097 ± 0.041
308.15 K, x1 = 0.1002	891.857 ± 0.27	0.5111 ± 0.01
308.15 K, x1 = 0.2001	910.441 ± 0.31	0.6006 ± 0.012
308.15 K, x1 = 0.3001	927.416 ± 0.35	0.7023 ± 0.013
308.15 K, x1 = 0.4001	943.254 ± 0.4	0.8122 ± 0.015
308.15 K, x1 = 0.4999	957.89 ± 0.46	0.9381 ± 0.018
308.15 K, x1 = 0.5999	971.596 ± 0.53	1.084 ± 0.021
308.15 K, x1 = 0.6999	984.431 ± 0.6	1.255 ± 0.024
308.15 K, x1 = 0.7999	996.411 ± 0.68	1.449 ± 0.028
308.15 K, x1 = 0.8997	1007.43 ± 0.77	1.657 ± 0.032
308.15 K, x1 = 1	1017.42 ± 0.87	1.858 ± 0.036
313.15 K, x1 = 0.1002	886.313 ± 0.27	0.4852 ± 0.0096
313.15 K, x1 = 0.2001	904.918 ± 0.3	0.5661 ± 0.011
313.15 K, x1 = 0.3001	921.903 ± 0.35	0.659 ± 0.013
313.15 K, x1 = 0.4001	937.749 ± 0.4	0.7575 ± 0.014
313.15 K, x1 = 0.4999	952.388 ± 0.46	0.8692 ± 0.017
313.15 K, x1 = 0.5999	966.093 ± 0.52	0.9979 ± 0.019
313.15 K, x1 = 0.6999	978.93 ± 0.59	1.146 ± 0.022
313.15 K, x1 = 0.7999	990.912 ± 0.67	1.313 ± 0.025
313.15 K, x1 = 0.8997	1001.93 ± 0.76	1.489 ± 0.029
313.15 K, x1 = 1	1011.9 ± 0.86	1.658 ± 0.032
318.15 K, x1 = 0.1002	880.728 ± 0.27	0.4556 ± 0.0091
318.15 K, x1 = 0.2001	899.348 ± 0.3	0.5305 ± 0.01
318.15 K, x1 = 0.3001	916.356 ± 0.35	0.6187 ± 0.012
318.15 K, x1 = 0.4001	932.209 ± 0.4	0.7066 ± 0.014
318.15 K, x1 = 0.4999	946.847 ± 0.46	0.8068 ± 0.015
318.15 K, x1 = 0.5999	960.559 ± 0.52	0.92 ± 0.018
318.15 K, x1 = 0.6999	973.398 ± 0.59	1.052 ± 0.02
318.15 K, x1 = 0.7999	985.384 ± 0.67	1.196 ± 0.023
318.15 K, x1 = 0.8997	996.4 ± 0.75	1.348 ± 0.026
318.15 K, x1 = 1	1006.36 ± 0.85	1.491 ± 0.029
323.15 K, x1 = 0.1002	875.1 ± 0.27	0.4242 ± 0.0086
323.15 K, x1 = 0.2001	893.744 ± 0.3	0.5003 ± 0.0099
323.15 K, x1 = 0.3001	910.77 ± 0.35	0.5839 ± 0.011
323.15 K, x1 = 0.4001	926.634 ± 0.4	0.6648 ± 0.013
323.15 K, x1 = 0.4999	941.277 ± 0.45	0.755 ± 0.015
323.15 K, x1 = 0.5999	954.994 ± 0.52	0.8565 ± 0.016
323.15 K, x1 = 0.6999	967.835 ± 0.59	0.9727 ± 0.019
323.15 K, x1 = 0.7999	979.827 ± 0.66	1.103 ± 0.021
323.15 K, x1 = 0.8997	990.842 ± 0.75	1.235 ± 0.024
323.15 K, x1 = 1	1000.79 ± 0.84	1.349 ± 0.026
